Data reported in patent US20230295212A1 (ROME Therapeutics, Inc., priority 2022, published 2023).
pIC50: −log10 of the molar value.

Target: T1, LINE1 reverse transcriptase (Homo sapiens, UniProt O00370)
T1 construct: expressed in transfected cells; host or cells: HeLa Tet-On 3G (Takara, cat no 631183)
Test: Stable artificial-intron Cis LINE1 reporter assay (HeLa Tet-On 3G, Firefly luciferase)
Format: cell-based
Details: HeLa L1 artificial-intron reporter cells, doxycycline 500 ng/mL, 72 h, class symbols
Procedure: Exemplary compounds, were tested for the ability to inhibit LINE1 reverse transcriptase using a stable artificial-intron Cis LINE1 reporter assay. Assay procedures and results are described below.
A stable HeLa Tet-On 3G (Takara, cat no 631183) cell line expressing a bi-directional inducible LINE1 construct was generated as described in Xie, Y. et al. “Cell division promotes efficient retrotransposition in a stable L1 reporter cell line,” Mobile DNA (2013) 4:10. Single cell clones were screened for high Luciferase expression and the highest expression Firefly expressing clone was chosen for compound testing.
Test compounds were serially diluted in DMSO and spotted in 96-well plates. Subsequently, the HeLa Li artificial-intron reporter cells were plated into the compound-containing wells (8,000 cells/well), and the cells were induced for reporter expression with doxycycline (Sigma-Aldrich cat #D9891) at a final concentration of 500 ng/mL. Luminescence was measured 72 h after plating using the Dual-Glo Luciferase Assay System (Promega cat #E2940) following the manufacturer's instructions. The Firefly Luciferase activity was used to report LINE1 activity.

T1 sequence (O00370 whole entry, looked up): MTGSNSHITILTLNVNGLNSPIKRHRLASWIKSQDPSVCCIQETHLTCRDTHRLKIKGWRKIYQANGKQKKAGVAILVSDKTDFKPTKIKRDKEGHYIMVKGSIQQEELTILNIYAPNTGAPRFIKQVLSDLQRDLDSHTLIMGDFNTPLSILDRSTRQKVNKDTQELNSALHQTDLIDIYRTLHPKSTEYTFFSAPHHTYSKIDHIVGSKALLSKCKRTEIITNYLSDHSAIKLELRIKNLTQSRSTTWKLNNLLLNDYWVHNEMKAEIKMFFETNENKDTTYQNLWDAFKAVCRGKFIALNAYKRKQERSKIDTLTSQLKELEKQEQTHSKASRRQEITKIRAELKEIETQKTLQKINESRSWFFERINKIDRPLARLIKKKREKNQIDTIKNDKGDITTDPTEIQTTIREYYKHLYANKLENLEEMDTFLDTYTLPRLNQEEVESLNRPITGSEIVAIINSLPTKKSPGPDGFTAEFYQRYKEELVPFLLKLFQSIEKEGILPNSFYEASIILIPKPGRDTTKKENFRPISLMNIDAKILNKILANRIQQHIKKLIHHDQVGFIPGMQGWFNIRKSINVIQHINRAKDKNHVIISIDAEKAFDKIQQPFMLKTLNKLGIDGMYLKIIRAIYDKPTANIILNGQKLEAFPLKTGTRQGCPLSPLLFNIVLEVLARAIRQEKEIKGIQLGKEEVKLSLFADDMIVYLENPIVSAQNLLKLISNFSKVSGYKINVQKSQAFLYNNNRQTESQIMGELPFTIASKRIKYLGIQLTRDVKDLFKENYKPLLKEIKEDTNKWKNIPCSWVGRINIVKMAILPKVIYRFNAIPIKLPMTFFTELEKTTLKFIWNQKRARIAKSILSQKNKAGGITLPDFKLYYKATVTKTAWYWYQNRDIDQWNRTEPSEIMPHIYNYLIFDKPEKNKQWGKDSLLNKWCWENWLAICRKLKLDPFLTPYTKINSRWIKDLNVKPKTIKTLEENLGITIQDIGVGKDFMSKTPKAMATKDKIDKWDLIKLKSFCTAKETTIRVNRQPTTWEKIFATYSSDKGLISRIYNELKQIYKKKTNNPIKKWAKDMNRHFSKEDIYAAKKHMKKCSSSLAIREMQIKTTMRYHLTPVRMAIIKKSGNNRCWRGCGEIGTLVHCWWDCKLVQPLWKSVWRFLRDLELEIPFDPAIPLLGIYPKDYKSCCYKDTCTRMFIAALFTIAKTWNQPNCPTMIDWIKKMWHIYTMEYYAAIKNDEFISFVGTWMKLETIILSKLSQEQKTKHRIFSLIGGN

Compound	pIC50
CC[C@]1(CO)O[C@@H](n2cnc3c(=O)[nH]c(N)nc32)[C@@H](F)[C@@H]1O [Compound 68, 2-amino-9-((2R,3S,4R,5R)-5-ethyl-3-fluoro-4-hydroxy-5-(hydroxymethyl)tetrahydrofuran-2-yl)-1,9-dihydro-6H-purin-6-one]	6.60 to 7.00
C=C[C@]1(CO)O[C@@H](n2cnc3c(O)nc(N)nc32)C[C@@H]1O [Compound 69, 2-amino-9-((2R,4S,5R)-4-hydroxy-5-(hydroxymethyl)-5-vinyltetrahydrofuran-2-yl)-1,9-dihydro-6H-purin-6-one]	≥ 7.30
Nc1nc2c(ncn2[C@@H]2O[C@@](CO)(CCl)[C@@H](O)[C@@H]2F)c(=O)[nH]1 [Compound 70, 2-amino-9-((2R,3S,4R,5R)-5-(chloromethyl)-3-fluoro-4-hydroxy-5-(hydroxymethyl)-tetrahydrofuran-2-yl)-1,9-dihydro-6H-purin-6-one]	< 6.00
Nc1nc(=O)n([C@@H]2O[C@@](CO)(CF)[C@@H](O)[C@@H]2O)cc1F [Compound 72, 4-amino-5-fluoro-1-((2R,3S,4S,5R)-5-(fluoromethyl)-3,4-dihydroxy-5-(hydroxymethyl)tetrahydrofuran-2-yl)pyrimidin-2(1H)-one]	6.00 to 6.60
Nc1nc(=O)n([C@@H]2O[C@@](CO)(CCl)[C@@H](O)[C@@H]2O)cc1F [Compound 73, 4-amino-1-((2R,3S,4S,5R)-5-(chloromethyl)-3,4-dihydroxy-5-(hydroxymethyl)tetrahydrofuran-2-yl)-5-fluoropyrimidin-2(1H)-one]	≥ 7.30
C=C[C@]1(CO)O[C@@H](n2cc(F)c(N)nc2=O)C[C@@H]1O [Compound 74, 4-amino-5-fluoro-1-((2R,4S,5R)-4-hydroxy-5-(hydroxymethyl)-5-vinyltetrahydrofuran-2-yl)pyrimidin-2(1H)-one]	≥ 7.30
C=C[C@]1(CO)O[C@@H](n2cc(F)c(N)nc2=O)[C@@H](O)[C@@H]1O [Compound 75, 4-amino-1-((2R,3S,4S,5R)-3,4-dihydroxy-5-(hydroxymethyl)-5-vinyltetrahydrofuran-2-yl)-5-fluoropyrimidin-2(1H)-one]	6.60 to 7.00
C=C[C@]1(CO)O[C@@H](n2cc(F)c(N)nc2=O)[C@@H](F)[C@@H]1O [Compound 76, 4-amino-1-[(2R,3S,4R,5R)-5-ethenyl-3-fluoro-4-hydroxy-5-(hydroxymethyl)oxolan-2-yl]-5-fluoropyrimidin-2-one]	≥ 7.30
CC[C@]1(CO)O[C@@H](n2cc(F)c(N)nc2=O)[C@@H](F)[C@@H]1O [Compound 77, 4-amino-1-[(2R,3S,4R,5R)-5-ethyl-3-fluoro-4-hydroxy-5-(hydroxymethyl)oxolan-2-yl]-5-fluoropyrimidin-2-one]	≥ 7.30
CC[C@]1(CO)O[C@@H](n2cc(F)c(N)nc2=O)[C@@H](O)[C@@H]1O [Compound 78, 4-amino-1-((2R,3S,4S,5R)-5-ethyl-3,4-dihydroxy-5-(hydroxymethyl)tetrahydrofuran-2-yl)-5-fluoropyrimidin-2(1H)-one]	7.00 to 7.30
C=C[C@]1(CO)O[C@@H](n2cnc3c(N)nc(F)nc32)[C@@H](F)[C@@H]1O [Compound 80, (2R,3R,4S,5R)-5-(6-amino-2-fluoropurin-9-yl)-2-ethenyl-4-fluoro-2-(hydroxymethyl)oxolan-3-ol]	6.60 to 7.00
CC[C@]1(CO)O[C@@H](n2cnc3c(N)nc(F)nc32)[C@@H](F)[C@@H]1O [Compound 81, (2R,3R,4S,5R)-5-(6-amino-2-fluoropurin-9-yl)-2-ethyl-4-fluoro-2-(hydroxymethyl)oxolan-3-ol]	6.60 to 7.00
CC[C@]1(CO)O[C@@H](n2cc(F)c(N)nc2=O)C[C@@H]1O [Compound 82, 4-amino-1-((2R,4S,5R)-5-ethyl-4-hydroxy-5-(hydroxymethyl)tetrahydrofuran-2-yl)-5-fluoropyrimidin-2(1H)-one]	≥ 7.30
Nc1nc2c(ncn2[C@@H]2O[C@@](CO)(CF)[C@@H](O)[C@@H]2F)c(=O)[nH]1 [Compound 83, 2-amino-9-((2R,3S,4R,5R)-3-fluoro-5-(fluoromethyl)-4-hydroxy-5-(hydroxymethyl)tetrahydrofuran-2-yl)-1,9-dihydro-6H-purin-6-one]	< 6.00
Nc1nc(F)nc2c1ncn2[C@@H]1O[C@@](CO)(CF)[C@@H](O)[C@@H]1F [Compound 84]	< 6.00
Nc1nc(=O)n([C@@H]2O[C@@](CO)(CF)[C@@H](O)[C@@H]2F)cc1F [Compound 85, 4-amino-5-fluoro-1-[(2R,3S,4R,5R)-3-fluoro-5-(fluoromethyl)-4-hydroxy-5-(hydroxymethyl)oxolan-2-yl] pyrimidin-2-one]	7.00 to 7.30
Nc1nc(=O)n([C@@H]2O[C@@](CO)(CBr)[C@@H](O)[C@@H]2F)cc1F [Compound 86, 4-amino-1-[(2R,3S,4R,5R)-5-(bromomethyl)-3-fluoro-4-hydroxy-5-(hydroxymethyl)oxolan-2-yl]-5-fluoropyrimidin-2-one]	≥ 7.30
Nc1nc(=O)n([C@H]2C[C@H](O)[C@](CO)(CBr)O2)cc1F [Compound 88, 4-amino-1-((2R,4S,5R)-5-(bromomethyl)-4-hydroxy-5-(hydroxymethyl)tetrahydrofuran-2-yl)-5-fluoropyrimidin-2(1H)-one]	≥ 7.30
[N-]=[N+]=N[C@]1(CO)O[C@@H](c2ccc3c(N)ncnn23)C[C@@H]1O [Compound 92, (2R,3S,5R)-5-(4-aminopyrrolo[2,1-f][1,2,4]triazin-7-yl)-2-azido-2-(hydroxymethyl)tetrahydrofuran-3-ol]	≥ 7.30
C[C@]1(CO)O[C@@H](n2ccc(N)nc2=O)C[C@@H]1O [Compound 106, 4-amino-1-((2R,4S,5R)-4-hydroxy-5-(hydroxymethyl)-5-methyltetrahydrofuran-2-yl)pyrimidin-2(1H)-one]	≥ 7.30
C#C[C@]1(CO)O[C@@H](n2cc(F)c(N)nc2=O)C[C@@H]1O [Compound 107, 4-amino-1-((2R,4S,5R)-5-ethynyl-4-hydroxy-5-(hydroxymethyl)tetrahydrofuran-2-yl)-5-fluoropyrimidin-2(1H)-one]	≥ 7.30
[N-]=[N+]=N[C@]1(CO)O[C@@H](n2cnc3c(=O)[nH]c(N)nc32)C[C@@H]1O [Compound 108, 2-amino-9-((2R,4S,5R)-5-azido-4-hydroxy-5-(hydroxymethyl)tetrahydrofuran-2-yl)-1,9-dihydro-6H-purin-6-one]	7.00 to 7.30
C=C[C@]1(CO)O[C@@H](n2cnc3c(N)nc(F)nc32)C[C@@H]1O [Compound 109, (2R,3S,5R)-5-(6-amino-2-fluoro-9H-purin-9-yl)-2-(hydroxymethyl)-2-vinyltetrahydrofuran-3-ol]	≥ 7.30
Nc1ccn([C@H]2C[C@H](O)[C@](CO)(C(F)F)O2)c(=O)n1 [Compound 110, 4-amino-1-((2R,4S,5R)-5-(difluoromethyl)-4-hydroxy-5-(hydroxymethyl)-tetrahydrofuran-2-yl)pyrimidin-2(1H)-one]	6.00 to 6.60
Nc1ccn([C@@H]2O[C@H](CO)[C@@H](O)C2(F)F)c(=O)n1 [Compound 111, 4-amino-1-((2R,4R,5R)-3,3-difluoro-4-hydroxy-5-(hydroxymethyl)tetrahydrofuran-2-yl)pyrimidin-2(1H)-one]	≥ 7.30
C#C[C@]1(CO)O[C@@H](n2cc(F)c(N)nc2=O)[C@@H](F)[C@@H]1O [Compound 112, 4-amino-1-((2R,3S,4R,5R)-5-ethynyl-3-fluoro-4-hydroxy-5-(hydroxymethyl)tetrahydrofuran-2-yl)-5-fluoropyrimidin-2(1H)-one]	≥ 7.30
Nc1ccn([C@@H]2O[C@@](CO)(CF)[C@@H](O)[C@@H]2F)c(=O)n1 [Compound 113, 4-amino-1-((2R,3S,4R,5R)-3-fluoro-5-(fluoromethyl)-4-hydroxy-5-(hydroxymethyl)-tetrahydrofuran-2-yl)pyrimidin-2(1H)-one]	7.00 to 7.30
Nc1ccn([C@@H]2O[C@@](CO)(CCl)[C@@H](O)[C@@H]2O)c(=O)n1 [Compound 114, 4-amino-1-((2R,3S,4S,5R)-5-(chloromethyl)-3,4-dihydroxy-5-(hydroxymethyl)tetrahydrofuran-2-yl)pyrimidin-2(1H)-one]	6.60 to 7.00

Same assay, conditions: HeLa L1 artificial-intron reporter cells, doxycycline 500 ng/mL, 72 h, numeric bounds

Compound	pIC50
Nc1nc(=O)n([C@H]2C[C@H](O)[C@](CO)(CCl)O2)cc1C(F)(F)F [Compound 71, 4-amino-1-((2R,4S,5R)-5-(chloromethyl)-4-hydroxy-5-(hydroxymethyl)tetrahydrofuran-2-yl)-5-(trifluoromethyl)pyrimidin-2(1H)-one]	< 4.52
Nc1ncnn2c([C@H]3C[C@H](O)[C@](CO)(CF)O3)ccc12 [Compound 79, (2R,3S,5R)-5-(4-aminopyrrolo[2,1-f] [1,2,4]triazin-7-yl)-2-(fluoromethyl)-2-(hydroxymethyl)tetrahydrofuran-3-ol]	< 4.52
Nc1nc2c(ncn2[C@@H]2O[C@@](CO)(CCl)[C@@H](O)[C@@H]2O)c(=O)[nH]1 [Compound 94, 2-amino-9-[(2R,3S,4S,5R)-5-(chloromethyl)-3,4-dihydroxy-5-(hydroxymethyl)oxolan-2-yl]-1H-purin-6-one]	< 4.52
Nc1nc(=O)n([C@@H]2O[C@@](CO)(C(F)(F)F)[C@@H](O)[C@@H]2O)cc1F [Compound 95, 4-amino-1-((2R,3S,4S,5R)-3,4-dihydroxy-5-(hydroxymethyl)-5-(trifluoromethyl)tetrahydrofuran-2-yl)-5-fluoropyrimidin-2(1H)-one]	< 4.52
